From patent US20200045974A1, “Substituted Oxadiazoles for Combating Phytopathogenic Fungi” (BASF SE, priority 2017, published 2020) come the findings set out here.

Structures are written as SMILES.

Assay type in all cases: in vivo
In assay [1] the test system is Phakopsora pachyrhizi. The assay is described as follows: Curative control of soy bean rust on soy beans. The settings on record: 32 ppm active compound, soy bean seedlings sprayed after inoculation, assessed after 14 days; untreated plants 100%. The protocol:
(§1) This mixture was added to 25 mg of the compound to give a total of 5 mL. Water was then added to total volume of 100 mL. This stock solution was diluted with the described solvent-emulsifier-water mixture to the given concentration.
II.1) Curative Control of Soy Bean Rust on Soy Beans Caused by Phakopsora pachyrhizi
Leaves of pot-grown soy bean seedlings were inoculated with spores of Phakopsora pachyrhizi. To ensure the success of the artificial inoculation, the plants were transferred to a humid chamber with a relative humidity of about 95% and 20 to 24° C. for 24 hours. The next day the plants were cultivated for 3 days in a greenhouse chamber at 23 to 27° C. and a relative humidity between 60 and 80%. Then the plants were sprayed to run-off with an aqueous suspension, containing the concentration of active ingredient or their mixture as described below. The plants were allowed to air-dry. Then the trial plants were cultivated for 14 days in a greenhouse chamber at 23 to 27° C. and a relative humidity between 60 and 80%. The extent of fungal attack on the leaves was visually assessed as % diseased leaf area.

Assay [2] deals with Phakopsora pachyrhizi. Kind of assay: Protective control of soy bean rust on soy beans. The settings on record: 32 ppm active compound, soy bean seedlings sprayed 2 days before inoculation, assessed after fourteen days; untreated plants 100%. The protocol:
as §1
II.2) Protective Control of Soy Bean Rust on Soy Beans Caused by Phakopsora pachyrhizi
Leaves of pot-grown soy bean seedlings were sprayed to run-off with an aqueous suspension, containing the concentration of active ingredient or their mixture as described below. The plants were allowed to air-dry. The trial plants were cultivated for 2 day in a greenhouse chamber at 23 to 27° C. and a relative humidity between 60 and 80%.Then the plants were inoculated with spores of Phakopsora pachyrhizi. To ensure the success the artificial inoculation, the plants were transferred to a humid chamber with a relative humidity of about 95% and 20 to 24° C. for 24 hours. The trial plants were cultivated for fourteen days in a greenhouse chamber at 23 to 27° C. and a relative humidity between 60 and 80%. The extent of fungal attack on the leaves was visually assessed as % diseased leaf area.

In assay [3] the test system is Puccinia recondite. The assay is described as follows: Curative control of brown rust on wheat. To be noted: 32 ppm active compound, wheat seedlings sprayed after inoculation, assessed after 8 days; untreated plants 90%. Here is the method: as §1
II.3) Curative Control of Brown Rust on Wheat Caused by Puccinia Recondite
The first two developed leaves of pot-grown wheat seedling were dusted with spores of Puccinia recondite. To ensure the success the artificial inoculation, the plants were transferred to a humid chamber without light and a relative humidity of 95 to 99% and 20 to 24° C. for 24 hours. The next day the plants were cultivated for 3 days in a greenhouse chamber at 20 to 24° C. and a relative humidity between 65 and 70%. Then the plants were sprayed to run-off with an aqueous suspension, containing the concentration of active ingredient or their mixture as described below. The plants were allowed to air-dry. Then the trial plants were cultivated for 8 days in a greenhouse chamber at 20 to 24° C. and a relative humidity between 65 and 70%. The extent of fungal attack on the leaves was visually assessed as % diseased leaf area.

`O=C(NC12CC(C1)C2)c1ccc(-c2noc(C(F)(F)F)n2)cc1` [Ex-1, N-(1-bicyclo[1.1.1]pentanyl)-4-[5-(trifluoromethyl)-1,2,4-oxadiazol-3-yl]benzamide]: the diseased leaf area in assay [1] is given as 0%; in assay [2] it was 0%; in assay [3], 2%.
